The values that follow come from US20070099232A1, “Ecdysone receptor ligand-binding domain structure” (priority 2003, published 2007).

The test system of one test is BtEcR. Put plainly: BtEcR competitive binding assay with [3H]-ponasterone A as tracer. Further details: species or system Bemisia tabaci. The source says: As will be readily understood by persons skilled in this field, the methods of the present invention provide a rational method for designing and selecting compounds which interact with an ecdysone receptor and specifically that of B. tabaci. In the majority of cases these compounds will require further development in order to increase activity. Such further development is routine in this field and will be assisted by the structural information provided in this application and screens employing EcR and optionally USP nucleotide and/or polypeptide sequences. In vitro competitive binding screens compete unlabelled test compounds against a labelled ligand (tracer) to observe if they inhibit the binding of the latter to functional receptor LBDs. In vitro competition binding screens may utilise LBD sequences or D (linker) domain sequences linked to LBD sequences. In vivo cell-based screens employ full-length EcR and optionally full-length USP nucleotide sequences functionally linked to suitable promoters for expression in mammalian, insect or yeast cells containing a suitable reporter gene construct. Alternatively, in vivo cell-based screens may employ the EF or DEF domain encoding regions of EcR and optionally of USP nucleotide sequences functionally linked to nucleotide sequences encoding domains from other transcription factors. In particular, the BtEcR nucleotide sequence (SEQ ID NO 1) and/or polypeptide sequence (SEQ ID NO 2) and optionally BtUSP nucleotide sequence and/or polypeptide sequence or the corresponding EF or DEF domains may be utilised in screens to develop improved compounds derived by rational design employing the B. tabaci EcR/USP crystal structure. It is intended that in particular embodiments the methods of the present invention includes such further developmental steps.
Biological assays to measure the activity of ecdysone receptor agonists and antagonists are well known in the field. Traditional screens for ecdysone receptor agonists examine candidate compounds for an ability to induce the moulting or pupation of whole insect larvae (Becker, 1941; Cymborowski, 1989), the evagination of imaginal discs (Fristrom J. W. & Yund, 1976) or morphological transformation of the Drosophila BII cell line (Clément et al., 1993). More recent assays use mammalian or other eukaryotic cells that have been co-transfected with a recombinant ecdysone receptor and a reporter gene linked to an appropriate response element Both types of screen can also be reformatted to detect non-agonist ligands (antagonists), which can be recognised by their ability to inhibit the activation the receptor by an agonist provided as a standard component of the assay (Yang et al., 1986; Oberdorster et al., 2001)(Oberdorster et al, 2001). […] In addition, potential agonists and antagonists may be screened for their ability to inhibit the binding of europium-labelled ecdysone receptor ligands to soluble, recombinant ecdysone receptor in a microplate-based format Europium is a lanthanide fluorophore, the presence of which can be measured using time-resolved fluorometry. […] Binding affinity and inhibitor potency may also be measured for candidate inhibitors using biosensor technology. […]

Test [1] relates to Choristoneura fumiferana EcR A110P. The note with it: single point mutation A110P; cited from earlier work.
Test [2] has as its target T1, dipteran (Lucilia cuprina) receptor (Lucilia cuprina, UniProt O18531).
T1 construct: made in house
T1 sequence (O18531 442-677 limits assumed): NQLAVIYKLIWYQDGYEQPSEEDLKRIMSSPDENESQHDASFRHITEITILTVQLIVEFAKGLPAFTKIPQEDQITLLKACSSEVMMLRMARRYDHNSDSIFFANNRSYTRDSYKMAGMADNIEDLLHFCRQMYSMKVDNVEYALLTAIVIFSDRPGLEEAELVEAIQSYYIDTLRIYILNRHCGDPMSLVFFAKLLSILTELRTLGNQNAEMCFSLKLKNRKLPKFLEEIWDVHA
Put plainly: In vitro binding studies employing purified recombinant LBDs (dipteran receptor). Particulars: unpublished results. The text has this:
(§1) Table 3 presents the inter-order variation apparent across a variety of Insecta EcR LBDs for those residues that line the ecdysteroid binding pocket observed in the B. tabaci structure. […] For example, in the hemipteran B. tabaci (resistant to the bisacylhydrazine compounds) residue 272 is methionine, whereas in lepidopteran species (susceptible to bisacylhydrazines) the residue at this position is a smaller valine. Attention has also been drawn to the potential importance of the residue at this position in relation to the control spectrum of bisacylhydrazine insecticides in the communication by Billas et al. (2003) reporting the crystal structure of the lepidopteran Heliothis virescens EcR/USP heterodimeric LBD. It is apparent from Table 3 of the present application that the methionine at position 272 is present in the Hemiptera, Diptera, Orthoptera and Coleoptera while the residue in this position of the Lepidoptera is valine. […] Clearly the response to bisacylhydrazines is not simply dependent on the residue at the position corresponding to 272 in B. tabaci.

The subject of test [3] is whitefly (B. tabaci) receptor. Put plainly: In vitro binding studies employing purified recombinant LBDs (whitefly receptor). Particulars: unpublished results. Further details: species or system Bemisia tabaci.
Excerpt: as §1

Test [4] relates to Lepidotera versus Diptera. The note with it: selectivity at the level of insect orders; cited from earlier work.
Test [5] addresses recombinant B. tabaci receptor LBD (BtEcR/BtUSP heterodimer). Put plainly: Equilibrium binding studies with [3H]-ponasterone A as ligand. Further details: species or system Bemisia tabaci. Particulars: by direct curve fitting, recombinant heterodimeric LBD. As to the method: Pilot-scale expression of recombinant heterodimeric BtEcR-BtUSP LBD was achieved by infection of suspension cultures of Sf9, Sf21 and or Hi-5 insect cells in spinner flasks or Schott bottles on a shaker platform maintained at 27° C. Insect cells infected with the virus engineered to express BtEcR/BtUSP ligand-binding domain were shown by gel electrophoresis to contain the expressed polypeptides corresponding to the two tagged domains.

The subject of test [6] is BtEcR/BtUSP heterodimer binding to EcRE DNA. Put plainly: Electrophoretic mobility shift assay (EMSA) of receptor binding to EcRE (hsp27 response element). Particulars: in the presence of 5mM MgCl2; compared to binding without hormone. The test is classed as biochemical, Bemisia tabaci. On the procedure: DNA binding function was assessed by electrophoretic mobility shift assay (EMSA). For these experiments, EcR and USP proteins were translated as above but using unlabelled methionine. The EcRE probe (hsp27 response element) was prepared by α-^32P labelling 5 pmol of annealed oligo (5′[…]3′ and 5′[…]3′) with Klenow ([…] Labelling Kit, Geneworks). This mix was then phenol/chloroform extracted, ethanol precipitated and resuspended in 100 μl of TE. Binding and electrophoresis were performed as described by (Molloy, 2000). For a 20 μl reaction mix, 2.5 μl of each translated extract was incubated with 8.0 μl of BufferA (20 mM HEPES pH 7.9, 100 mM KCI, 2 mM dithiothreitol (DTT), 1 mM EDTA, 20% (v/v) glycerol), 2 μl of 2% (v/v) NP-40, 1 μl BSA (10 mg/ml), 0.5 μl 2 mg/ml poly (dI-dC).poly(dI-dC), 6 μg single stranded DNA plus or minus 1 μl of 100 mM MgCl2. After 20 minutes at room temperature, 0.05 pmoles of labelled probe was added and the mix was incubated again for 20 minutes. One sample also had the addition of excess (1.25 pmoles) unlabelled EcRE DNA. 10 μl of the mix was analysed by electrophoresis at 4° C., 80 V in a 0.25×TBE, 5% polyacrylamide gel. After fixing and drying, radioactive species were visualized by the Molecular Dynamics Phosphorimaging system. […]
(In general: Mobility shift assays separate free from complexed probe on a gel.)

For `O=C(CSC1NCCN1)c1ccccc1` [IV], the “binding in BtEcR competitive binding assay” value with BtEcR was “weak-moderate binding”. For `CCc1c(OC)cccc1C(=O)NN(C(=O)c1cc(C)cc(C)c1)C(C)(C)C` [RG-102240], the “effect of A110P point mutation on response of receptor to ligand” value in test [1] is given as “without affecting response”. On to `CCc1ccc(C(=O)NN(C(=O)c2cc(C)cc(C)c2)C(C)(C)C)cc1` [RH5992], for which the “binding in BtEcR competitive binding assay” value in the test with BtEcR is listed as “negligible binding”. Further, the “affinity of receptor for compound” value in test [2] is listed as “significant affinity”; in test [3] it was “only very low affinity”. Further, the “effectiveness against Lepidotera relative to Diptera” value in test [4] is given as “two to three orders of magnitude more effective”. In the case of `O=C1OC(c2cccs2)=N/C1=C/c1ccccc1` [compound III], the “binding in BtEcR competitive binding assay” value in the test on BtEcR is “weak-moderate binding”. Still for that read-out and setting: in the case of `CC(C)(C)C(=O)N1N=C(c2ccccc2)OC1(C)c1ccc(F)cc1` (centres unmarked) [compound II] it was “negligible binding”. Regarding `CC(C)(C)N(NC(=O)c1ccccc1)C(=O)c1ccccc1` [compound I], the “binding in BtEcR competitive binding assay” value in the test on BtEcR was “negligible binding”.

For orientation: Kd means a measure of binding affinity in units of concentration. As for `CC(C)CC[C@@H](O)[C@](C)(O)[C@H]1CC[C@@]2(O)C3=CC(=O)[C@@H]4C[C@@H](O)[C@@H](O)C[C@]4(C)[C@H]3CC[C@]12C` [ponasterone A], in test [5], the Kd turned out to be 1.21 ± 0.17 nM. In addition, the “effect of hormone on binding of receptor heterodimer to EcRE” value in test [6] is listed as “clearly enhanced binding”.
